Data as given in patent publication US7476670B2, “Purine derivatives, method for preparing, pharmaceutical compositions and novel use” (Aventis Pharma S.A., priority 2003, dated 2009).

Experiments:
Aspergillus fumigatus = test: Minimum inhibitory concentration in liquid medium, micro method (NCCLS M27-A); assay type: cell-based; conditions: Aspergillus fumigatus; at least 80% inhibition of growth, read after 48-72 h at 37° C., RPMI 1640
[1] = molecular target: Cyclin Dependent kinase 1 (CDK1) (Homo sapiens, UniProt P06493); test: Assay for inhibition of CDK1 activity; assay type: biochemical; conditions: [33P]ATP, read-out: percentage inhibition at 20 μM
Protocol: The inhibition of the kinase activity of Cyclin Dependent kinase 1 (CDK1) is determined by measuring the phosphorylation of its substrate peptide.
The test is carried out in a final volume of 50 μl.
(§1) The incubation buffer is as follows:
• 50 mM Tris/HCl pH 7.5 • 10 mM MgCl2 • […] Na2VO4 • 2 mM DTT • 40 mM Beta-glycerophosphate • 0.1 mg/ml BSA 5 μl of the 10-times concentrated inhibitor are added to 25 μl of incubation buffer containing 0.04 U/μl final concentration of the enzyme; 10 μl of incubation buffer containing 12.5 μM final concentration of peptide substrate are then added and, finally, 10 μl of incubation buffer containing 50 μM ATP and radiolabeled ATP, [^33P]ATP (0.5 μCi), are added. The reaction is stopped after incubation for 40 minutes at ambient temperature. • Results obtained expressed as percentage inhibition at 20 μM • Example 8 93% • Example 30 99% 5) Assay for Inhibition of Abl Activity

JNK3 kinase = JNK3 kinase (Homo sapiens, UniProt P53779); test: Assay for inhibition of JNK3 activity; assay type: biochemical; conditions: fluorescence polarization, ATP 6 μM; read-out: IC50s expressed as micromolar
Protocol: The inhibition of the kinase activity is determined by fluorescence polarization, the JNK3 kinase phosphorylates a peptide detected by adding an anti-phosphopeptide antibody coupled to a fluorescent label.
The assay is carried out in a final volume of 30 μl; all the reagents are prepared in a buffer: • 50 mM HEPES pH 7.5 • 0.03% triton X100 • 10 mM MgCl2 • 5% Glycerol • 1 mM DTT 10 μl of the 10-times concentrated inhibitor are added to 5 μl of enzyme (40 ng final concentration), and 5 μl of incubation buffer containing 100 ng of substrate and 10 μl of ATP (6 μM final concentration) are added.

GSK3beta = GSK3beta (Homo sapiens, UniProt P49841); test: Assay for inhibition of GSK3beta activity; assay type: biochemical; conditions: [33P]ATP; read-out: IC50s expressed as micromolar
Protocol: The inhibition of the kinase activity is determined by measuring the phosphorylation of its substrate peptide.
The assay is carried out in a final volume of 40 μl; all the reagents are prepared in a buffer: • 50 mM HEPES pH 7.5 • 0.03% triton X100 • 10 mM MgCl2 • 5% Glycerol • 1 mM DTT 10 μl of the 10-times concentrated inhibitor are added to 5 μl of enzyme (20 ng final concentration), and 5 μl of peptide (1 μM final concentration) then 2.5 μof incubation buffer containing 16 μM ATP and 2.5 μl of radiolabeled ATP, [^33P]ATP (50 nCi) are added. After incubation for 15 minutes at ambient temperature, 10 μl of incubation buffer containing 1 μM of substrate.

CAN Kinase II = test: Assay for inhibition for CAN kinase II activity; assay type: biochemical; conditions: [33P]ATP, calmodulin
Protocol: The inhibition of the kinase activity is determined by. measuring the phosphorylation of its substrate peptide.
The assay is carried out in a final volume of 50 μl.
as §1
• 20 mM MOPS pH 7.4 • 5 mM MgCl2 • 5 mM CaCl2 • 1 mM DTT • 100 μM Na2VO4 • 25 mM Beta-glycerophosphate 5 μl of the 10-times concentrated inhibitor are added to 25 μl of incubation buffer containing 0.2 μg/μl final concentration of the enzyme (Tebu, SE-134); 10 μl of incubation buffer containing 5 μM final concentration of substrate and 1600 U/ml final concentration of calmodulin are then added and, finally, 10 μl of incubation buffer containing 20 μM ATP and radiolabeled ATP, [^33P]ATP (0.05 μCi), are added. The reaction is stopped after incubation for 40 minutes at ambient temperature. • Results obtained expressed as percentage inhibition at 20 μM • Example 30 98% 9) Assay for Inhibition of EGF tyr Kinase Activity

Chain of Cyclin Dependent kinase 1 (CDK1) (P06493 whole entry, species assumed): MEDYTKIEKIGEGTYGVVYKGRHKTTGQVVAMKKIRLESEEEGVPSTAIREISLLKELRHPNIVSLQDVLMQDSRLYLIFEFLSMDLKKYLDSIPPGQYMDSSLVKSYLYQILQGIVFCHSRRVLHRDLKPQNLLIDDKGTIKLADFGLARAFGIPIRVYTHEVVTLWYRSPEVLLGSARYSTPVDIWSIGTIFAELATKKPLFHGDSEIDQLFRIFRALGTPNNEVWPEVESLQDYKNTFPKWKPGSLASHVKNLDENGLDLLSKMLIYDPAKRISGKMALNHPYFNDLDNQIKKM
Chain of Cyclin Dependent kinase 1 (CDK1) (P14635 whole entry partner, species assumed): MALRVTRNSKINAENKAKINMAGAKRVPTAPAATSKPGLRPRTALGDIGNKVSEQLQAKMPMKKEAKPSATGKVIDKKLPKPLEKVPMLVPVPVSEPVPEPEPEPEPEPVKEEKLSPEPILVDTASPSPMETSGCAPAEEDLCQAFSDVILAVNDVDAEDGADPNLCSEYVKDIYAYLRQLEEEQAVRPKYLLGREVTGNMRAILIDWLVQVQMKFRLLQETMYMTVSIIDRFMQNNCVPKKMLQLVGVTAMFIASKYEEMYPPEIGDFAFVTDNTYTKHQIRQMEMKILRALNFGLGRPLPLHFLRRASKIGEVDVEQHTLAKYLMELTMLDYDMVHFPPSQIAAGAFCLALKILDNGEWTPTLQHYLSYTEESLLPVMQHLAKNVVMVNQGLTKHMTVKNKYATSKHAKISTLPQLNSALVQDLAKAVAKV
Chain of GSK3beta (P49841 whole entry, species assumed): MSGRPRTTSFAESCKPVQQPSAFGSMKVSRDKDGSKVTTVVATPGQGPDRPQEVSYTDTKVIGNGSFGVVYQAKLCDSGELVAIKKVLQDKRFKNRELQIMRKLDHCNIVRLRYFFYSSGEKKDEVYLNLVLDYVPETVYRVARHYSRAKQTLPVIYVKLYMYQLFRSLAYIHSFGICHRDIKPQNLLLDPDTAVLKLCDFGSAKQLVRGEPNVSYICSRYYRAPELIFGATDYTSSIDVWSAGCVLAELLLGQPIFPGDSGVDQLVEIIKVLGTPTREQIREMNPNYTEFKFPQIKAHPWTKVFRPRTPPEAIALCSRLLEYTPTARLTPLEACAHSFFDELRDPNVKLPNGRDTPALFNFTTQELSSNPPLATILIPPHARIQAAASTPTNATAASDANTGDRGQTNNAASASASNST
Chain of JNK3 kinase (P53779 whole entry): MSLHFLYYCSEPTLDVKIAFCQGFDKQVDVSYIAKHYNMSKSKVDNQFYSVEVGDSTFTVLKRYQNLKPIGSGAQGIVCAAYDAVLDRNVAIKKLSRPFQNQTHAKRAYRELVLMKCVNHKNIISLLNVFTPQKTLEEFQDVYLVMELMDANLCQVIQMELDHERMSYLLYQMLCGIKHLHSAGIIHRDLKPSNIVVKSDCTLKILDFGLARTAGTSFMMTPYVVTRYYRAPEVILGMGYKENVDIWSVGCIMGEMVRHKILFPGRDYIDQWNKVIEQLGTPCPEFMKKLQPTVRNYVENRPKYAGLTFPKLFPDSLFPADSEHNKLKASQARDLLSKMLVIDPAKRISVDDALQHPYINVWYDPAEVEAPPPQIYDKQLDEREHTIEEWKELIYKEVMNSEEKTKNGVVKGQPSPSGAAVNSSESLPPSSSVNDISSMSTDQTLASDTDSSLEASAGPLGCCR

| Structure (SMILES) | MIC (Aspergillus fumigatus) | inhibition at 20 µM [1] | IC50 (JNK3 kinase) | IC50 (GSK3beta) | percentage inhibition at 20 μM (CAN Kinase II) |
| --- | --- | --- | --- | --- | --- |
| Cl.N[C@H]1CC[C@H](Nc2nc(-n3cnc4cc(Cl)c(Cl)cc43)c3nc[nH]c3n2)CC1 [Example 8, Trans-N-[6-(5,6-dichloro-1H-benzimidazol-1-yl)-9H-purin-2-yl]-1,4-cyclohexanediamine hydrochloride] | 32 µg/mL | 93% | 0.84 µM | – | – |
| Cl.Cl.N[C@H]1CC[C@H](Nc2nc(N3CCc4cc([N+](=O)[O-])ccc43)c3nc[nH]c3n2)CC1 [Example 30, Trans-N-[6-(2,3-dihydro-5-nitro-1H-indol-1-yl)-9H-purin-2-yl]-1,4-cyclohexanediamine dihydrochloride] | – | 99% | – | 1.5 µM | 98% |
